Reference: ChEMBL document CHEMBL1129112, “Antioxidant and cholesterol lowering properties of 2,6-DI-t-butyl-4-[(dimethylphenylsilyl)methyloxy]phenol and derivatives: A new class of anti-atherogenic compounds” (1996)

What was measured:
Assay type in all cases: functional
[1] = test system: Oryctolagus cuniculus; test: High density lipoprotein (HDL) percent control of cholesterol after administration in rabbits.; design: concentration or dose not given beside the values
[2] = species on record: Oryctolagus cuniculus; test: Total cholesterol present in New Zealand white rabbits fed with control diet (100 g/day) for seven days
[3] = test system: Oryctolagus cuniculus; test: Low density lipoprotein (LDL) percent control of cholesterol after administration in rabbits.; design: concentration or dose not given beside the values
[4] = test system: Oryctolagus cuniculus; test: Total percent control of cholesterol after administration in rabbits.; design: concentration or dose not given beside the values
[5] = species on record: Oryctolagus cuniculus; test: The compound was tested for antioxidant activity against serum thiobarbituric acid relative substances (TBARS),
[6] = species on record: Oryctolagus cuniculus; test: Tested for antioxidant activity against serum thiobarbituric acid relative substances (TBARS),

Question: With `COc1ccccc1[Si](C)(C)COc1cc(C(C)(C)C)c(O)c(C(C)(C)C)c1` as the compound, how does the Control [1] read?
Answer: Its Control is 217%.

Question: And the Activity [2]?
Answer: Its Activity is 235 mg/dL.

Question: And the Control [3]?
Answer: The Control was 61%.

Question: And the Control [4]?
Answer: The Control was 77%.

Question: What about the Control [5] of the same compound?
Answer: The Control was 75%.

Question: With `COc1ccc([Si](C)(C)COc2cc(C(C)(C)C)c(O)c(C(C)(C)C)c2)cc1` as the compound, how does the Control [1] read?
Answer: Its Control is 123%.

Question: And the Activity [2]?
Answer: The Activity was 153 mg/dL.

Question: And the Control [3]?
Answer: Its Control is 66%.

Question: And the Control [4]?
Answer: Its Control is 54%.

Question: And the Control [5]?
Answer: The Control was 60%.

Question: Which results are given for `CC(C)(C)c1cc(OC[Si](C)(C)c2ccccc2)cc(C(C)(C)C)c1O`?
Answer: Control [1]: 81%; Activity [2]: 165 mg/dL; Control [3]: 69%; Control [4]: 72%; Control [5]: 28%

Question: What does the source list for `CC(C)(C)c1cc(SC[Si](C)(C)c2ccccc2)cc(C(C)(C)C)c1O`?
Answer: Control [1]: 75%; Activity [2]: 119 mg/dL; Control [3]: 42%; Control [6]: 17%; Control [4]: 52%

Question: What does the source list for `CC(C)(C)c1cc(OC[Si](C)(C)c2ccc(Cl)cc2)cc(C(C)(C)C)c1O`?
Answer: Control [1]: 109%; Activity [2]: 247 mg/dL; Control [3]: 89%; Control [4]: 87%; Control [5]: 57%
